According to ChEMBL document CHEMBL1146668, “1,2-Benzothiazine 1,1-dioxide alpha-ketoamide analogues as potent calpain I inhibitors” (Bioorg Med Chem Lett, 2004):

Columns and labels:
Cathepsin B [1] = biological target: T1, Cathepsin B (Homo sapiens, UniProt P07858); assay: Inhibitory activity against cathepsin B; In active
[2] = biological target: T2, Calpain-1 catalytic subunit (Homo sapiens, UniProt P07384); assay: In vitro inhibitory activity against human calpain 1 in Molt-4 cells (intact human T-cell leukemia cell line); type: cell-based
T2 sequence (P07384 whole entry): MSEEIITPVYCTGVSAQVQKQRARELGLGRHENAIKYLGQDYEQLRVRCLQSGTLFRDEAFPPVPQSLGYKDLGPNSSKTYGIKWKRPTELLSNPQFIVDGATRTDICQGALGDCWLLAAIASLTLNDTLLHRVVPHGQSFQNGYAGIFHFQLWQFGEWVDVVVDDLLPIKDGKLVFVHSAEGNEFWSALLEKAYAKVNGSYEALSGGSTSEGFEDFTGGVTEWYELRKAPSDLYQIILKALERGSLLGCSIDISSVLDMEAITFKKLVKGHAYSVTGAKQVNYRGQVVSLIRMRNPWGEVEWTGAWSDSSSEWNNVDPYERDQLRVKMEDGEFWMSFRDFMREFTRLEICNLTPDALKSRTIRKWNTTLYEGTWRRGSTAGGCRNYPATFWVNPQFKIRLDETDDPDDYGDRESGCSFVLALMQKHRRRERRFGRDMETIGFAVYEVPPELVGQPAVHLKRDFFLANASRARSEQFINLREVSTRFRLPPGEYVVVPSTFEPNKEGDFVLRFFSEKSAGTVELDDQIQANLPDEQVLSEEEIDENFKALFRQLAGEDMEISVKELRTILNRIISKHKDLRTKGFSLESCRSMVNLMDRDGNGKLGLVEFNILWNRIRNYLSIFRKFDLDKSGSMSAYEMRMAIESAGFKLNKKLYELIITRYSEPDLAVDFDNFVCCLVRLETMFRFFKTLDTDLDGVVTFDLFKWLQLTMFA

Chymotrypsinogen B = Chymotrypsinogen B (Homo sapiens, UniProt P17538); assay: Inhibitory activity against chymotrypsinogen; Range 1-10 uM
[3] = biological target: T2, Calpain-1 catalytic subunit; assay: In vitro inhibitory activity against human calpain I; Not determined
[4] = biological target: T2, Calpain-1 catalytic subunit; assay: In vitro inhibitory activity against recombinant human calpain 1
Cathepsin B [5] = biological target: T1, Cathepsin B; assay: Inhibitory activity against cathepsin B

Chymotrypsinogen B, sequence (P17538 34-164 limits assumed, other chains not shown): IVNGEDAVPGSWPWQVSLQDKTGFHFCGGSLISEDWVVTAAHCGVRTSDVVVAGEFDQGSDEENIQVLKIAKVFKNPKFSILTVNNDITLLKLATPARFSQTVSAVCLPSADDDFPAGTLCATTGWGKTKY
Chymotrypsinogen B, sequence (P17538 167-263 limits assumed, other chains not shown): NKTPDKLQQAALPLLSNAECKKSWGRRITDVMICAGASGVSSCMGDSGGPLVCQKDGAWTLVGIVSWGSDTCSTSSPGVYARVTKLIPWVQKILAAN

Row | SMILES | IC50 [4] [nM] | other results
1 | CCN1C(C(=O)N[C@@H](Cc2ccccc2)C(=O)C(=O)NCCNS(=O)(=O)c2ccccc2)Cc2cc3c(cc2S1(=O)=O)OCCO3 (some centres undefined) | – | IC50 (Cathepsin B [1]): Not Active; IC50 [2]: 5000 nM; IC50 (Chymotrypsinogen B): > 10000 nM
2 | CCN1C(C(=O)N[C@H](C=O)Cc2ccccc2)Cc2cc(Cl)ccc2S1(=O)=O (some centres undefined) | – | IC50 [3]: 5 nM
3 | CCN1C(C(=O)N[C@@H](Cc2ccccc2)C(=O)C(=O)NCCNS(=O)(=O)c2ccc([N+](=O)[O-])cc2)Cc2cc3c(cc2S1(=O)=O)OCCO3 (some centres undefined) | – | IC50 [2]: 4200 nM
4 | CCCCNC(=O)C(=O)[C@H](CC(C)C)NC(=O)C1Cc2cc3c(cc2S(=O)(=O)N1CC)OCCO3 (single isomer, unassigned; form 1) | 500 | –
5 | CCN1C(C(=O)N[C@@H](Cc2ccccc2)C(=O)C(=O)NCCCNS(=O)(=O)c2ccccc2)Cc2cc3c(cc2S1(=O)=O)OCCO3 (some centres undefined) | – | IC50 [2]: 2700 nM
6 | CCN1C(C(=O)N[C@@H](Cc2ccccc2)C(=O)C(=O)NCCOC)Cc2cc3c(cc2S1(=O)=O)OCCO3 (some centres undefined) | 200 | –
7 | CCN1C(C(=O)N[C@@H](Cc2ccccc2)C(=O)C(=O)NC(C)C)Cc2cc3c(cc2S1(=O)=O)OCCO3 (some centres undefined) | 205 | –
8 | CCN1C(C(=O)N[C@@H](Cc2ccccc2)C(=O)C(=O)NCCCN2CCCC2=O)Cc2cc3c(cc2S1(=O)=O)OCCO3 (some centres undefined) | 500 | –
9 | CCN1C(C(=O)N[C@@H](Cc2ccccc2)C(=O)C(=O)NCc2ccccn2)Cc2cc3c(cc2S1(=O)=O)OCCO3 (some centres undefined) | 170 | –
10 | CCN1C(C(=O)N[C@@H](Cc2ccccc2)C(=O)C(=O)NCCCn2ccnc2)Cc2cc3c(cc2S1(=O)=O)OCCO3 (some centres undefined) | 5000 | –
11 | CCCCNC(=O)C(=O)[C@H](Cc1ccccc1)NC(=O)C1Cc2cc3c(cc2S(=O)(=O)N1CC)OCCO3 (stereo in doubt) | – | IC50 (Cathepsin B [1]): Not Active; IC50 (Chymotrypsinogen B): > 10000 nM
12 | CCCCCNC(=O)C(=O)[C@H](Cc1ccccc1)NC(=O)C1Cc2cc3c(cc2S(=O)(=O)N1CC)OCCO3 (some centres undefined) | 150 | –
13 | C=CCNC(=O)C(=O)[C@H](Cc1ccccc1)NC(=O)C1Cc2cc3c(cc2S(=O)(=O)N1CC)OCCO3 (some centres undefined) | 200 | –
14 | O=C[C@H](Cc1ccccc1)NC(=O)C1Cc2ccccc2S(=O)(=O)N1 (some centres undefined) | 7 | –
15 | CCN1C(C(=O)N[C@@H](Cc2ccccc2)C(=O)C(=O)NCCNS(=O)(=O)c2ccc(-c3ccccn3)s2)Cc2cc3c(cc2S1(=O)=O)OCCO3 (some centres undefined) | – | IC50 [2]: 1300 nM; IC50 (Cathepsin B [5]): Not Active; IC50 (Chymotrypsinogen B): > 10000 nM
16 | CCN1C(C(=O)N[C@@H](Cc2ccccc2)C(=O)C(=O)NCc2ccncc2)Cc2cc3c(cc2S1(=O)=O)OCCO3 (some centres undefined) | 240 | –
17 | CCN1C(C(=O)N[C@@H](Cc2ccccc2)C(=O)C(=O)NCCCNS(=O)(=O)c2ccc(F)cc2)Cc2cc3c(cc2S1(=O)=O)OCCO3 (some centres undefined) | – | IC50 [2]: 2400 nM
18 | CCN1C(C(=O)N[C@@H](Cc2ccccc2)C(=O)C(=O)NCCCNS(=O)(=O)c2ccc([N+](=O)[O-])cc2)Cc2cc3c(cc2S1(=O)=O)OCCO3 (some centres undefined) | – | IC50 [2]: 3600 nM
19 | CCNC(=O)C(=O)[C@H](Cc1ccccc1)NC(=O)C1Cc2cc(Cl)ccc2S(=O)(=O)N1CC (some centres undefined) | 1000 | –
20 | CCN1C(C(=O)N[C@@H](Cc2ccccc2)C(=O)C(=O)OC)Cc2cc3c(cc2S1(=O)=O)OCCO3 (some centres undefined) | 1000 | –
21 | CCN1C(C(=O)N[C@@H](Cc2ccccc2)C(=O)C(=O)NCCCN2CCOCC2)Cc2cc3c(cc2S1(=O)=O)OCCO3 (some centres undefined) | 195 | –
22 | CCCCNC(=O)C(=O)[C@H](CC(C)C)NC(=O)C1Cc2cc3c(cc2S(=O)(=O)N1CC)OCCO3 (single isomer, unassigned; form 2) | 1000 | –
23 | CCN1C(C(=O)N[C@@H](Cc2ccccc2)C(=O)C(=O)NCCNS(=O)(=O)c2ccc(F)cc2)Cc2cc3c(cc2S1(=O)=O)OCCO3 (some centres undefined) | – | IC50 [2]: 2000 nM
24 | CCN1C(C(=O)N[C@@H](Cc2ccccc2)C(=O)C(=O)NCCc2ccccc2)Cc2cc3c(cc2S1(=O)=O)OCCO3 (some centres undefined) | 63 | –
